# Results as given in PubChem BioAssay (NCI).
#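 Compound exposure: 48 hours, 5 concentrations, 96-well plates. Here, GI50 denotes the concentration required for 50% inhibition of growth. TGI denotes the concentration required for complete inhibition of growth.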
# What was measured:
# Assay in all cases: NCI tumour cell line growth inhibition, 48 h
# [1] = test system: COLO 205 colon
# [2] = test system: UO-31 renal
# [3] = test system: PC-3 prostate
# [4] = test system: HOP-62 NSCLC
# [5] = test system: DU-145 prostate
# [6] = test system: LOX IMVI melanoma
# [7] = test system: HS 578T breast
# [8] = test system: SF-539 CNS
# [9] = test system: SK-OV-3 ovarian
# [10] = test system: MOLT-4 leukemia
# [11] = test system: SNB-19 CNS
# [12] = test system: HL-60(TB) leukemia
# [13] = test system: OVCAR-8 ovarian
# [14] = test system: NCI-H522 lung
# [15] = test system: BT-549 breast
# [16] = test system: EKVX NSCLC
# [17] = test system: MDA-MB-435
# [18] = test system: CCRF-CEM leukemia
# [19] = test system: HCC-2998 colon
# [20] = test system: OVCAR-3 ovarian
# [21] = test system: A549 NSCLC
# [22] = test system: SF-268 CNS
# [23] = test system: SW-620 colon
# [24] = test system: HCT-15 colon
# [25] = test system: SK-MEL-2 melanoma
# [26] = test system: SN12C renal
# [27] = test system: T-47D breast
# [28] = test system: HCT-116 colon
# [29] = test system: NCI/ADR-RES ovarian
# [30] = test system: SK-MEL-28 melanoma
# [31] = test system: OVCAR-4 ovarian
# [32] = test system: SK-MEL-5 melanoma
# [33] = test system: MALME-3M melanoma
# [34] = test system: UACC-257 melanoma
# [35] = test system: ACHN renal
# [36] = test system: RPMI-8226 leukemia
# [37] = test system: HOP-92 NSCLC
# [38] = test system: SF-295 CNS
# [39] = test system: MDA-MB-231 breast
# [40] = test system: IGROV1 ovarian
# [41] = test system: HT29 colon
# [42] = test system: RXF 393 renal
# [43] = test system: NCI-H460 lung
# [44] = test system: U251 CNS
# [45] = test system: A498 renal
# [46] = test system: OVCAR-5 ovarian
# [47] = test system: CAKI-1 renal
# [48] = test system: UACC-62 melanoma
# [49] = test system: M14 melanoma
# [50] = test system: 786-0 renal
# [51] = test system: KM12 colon
# [52] = test system: K-562 leukemia
# [53] = test system: MCF7 breast
# [54] = test system: TK-10 renal
# [55] = test system: NCI-H226 lung
# [56] = test system: SNB-75 CNS
smiles,measurement,setting,value
COc1ccc2c(c1)c(-c1cc(N)n3nc(-c4cn(C)c5ccc(OC)cc45)cc3n1)cn2C,GI50,[1],1700 nM
same,TGI,[1],3.19 µM
same,GI50,[2],1660 nM
same,TGI,[2],3.19 µM
same,GI50,[3],1840 nM
same,TGI,[3],3.93 µM
same,GI50,[4],1810 nM
same,TGI,[4],3.67 µM
same,GI50,[5],1800 nM
same,TGI,[5],3.19 µM
same,GI50,[6],2040 nM
same,TGI,[6],3.64 µM
same,GI50,[7],2570 nM
same,TGI,[7],6.67 µM
same,GI50,[8],1780 nM
same,TGI,[8],3.27 µM
same,GI50,[9],2140 nM
same,TGI,[9],4.31 µM
same,GI50,[10],1950 nM
same,TGI,[10],4.88 µM
same,GI50,[11],2500 nM
same,TGI,[11],6.69 µM
same,GI50,[12],1310 nM
same,TGI,[12],3.98 µM
same,GI50,[13],1750 nM
same,TGI,[13],3.29 µM
same,GI50,[14],1740 nM
same,TGI,[14],3.41 µM
same,GI50,[15],3.23 µM
same,TGI,[15],12 µM
same,GI50,[16],1840 nM
same,TGI,[16],3.67 µM
same,GI50,[17],1910 nM
same,TGI,[17],3.74 µM
same,GI50,[18],436 nM
same,TGI,[18],7.46 µM
same,GI50,[19],1870 nM
same,TGI,[19],3.32 µM
same,GI50,[20],1750 nM
same,TGI,[20],3.17 µM
same,GI50,[21],1700 nM
same,TGI,[21],3.31 µM
same,GI50,[22],2030 nM
same,TGI,[22],4.4 µM
same,GI50,[23],1020 nM
same,TGI,[23],2410 nM
same,GI50,[24],1150 nM
same,TGI,[24],2780 nM
same,GI50,[25],1830 nM
same,TGI,[25],3.46 µM
same,GI50,[26],2020 nM
same,TGI,[26],3.98 µM
same,GI50,[27],1700 nM
same,TGI,[27],3.5 µM
same,GI50,[28],1500 nM
same,TGI,[28],3.1 µM
same,GI50,[29],2070 nM
same,TGI,[29],4.52 µM
same,GI50,[30],1850 nM
same,TGI,[30],3.46 µM
same,GI50,[31],2040 nM
same,TGI,[31],4.27 µM
same,GI50,[32],1790 nM
same,TGI,[32],3.25 µM
same,GI50,[33],1870 nM
same,TGI,[33],3.65 µM
same,GI50,[34],1780 nM
same,TGI,[34],3.63 µM
same,GI50,[35],1790 nM
same,TGI,[35],3.25 µM
same,GI50,[36],1780 nM
same,TGI,[36],6.15 µM
same,GI50,[37],1880 nM
same,TGI,[37],4.25 µM
same,GI50,[38],1880 nM
same,TGI,[38],3.44 µM
same,GI50,[39],1840 nM
same,TGI,[39],3.49 µM
same,GI50,[40],2000 nM
same,TGI,[40],4.14 µM
same,GI50,[41],1730 nM
same,TGI,[41],3.14 µM
same,GI50,[42],1870 nM
same,TGI,[42],3.57 µM
same,GI50,[43],1790 nM
same,TGI,[43],3.52 µM
same,GI50,[44],1820 nM
same,TGI,[44],3.49 µM
same,GI50,[45],1840 nM
same,TGI,[45],3.68 µM
same,GI50,[46],1840 nM
same,TGI,[46],3.58 µM
same,GI50,[47],1790 nM
same,TGI,[47],3.46 µM
same,GI50,[48],1960 nM
same,TGI,[48],3.87 µM
same,GI50,[49],1740 nM
same,TGI,[49],3.42 µM
same,GI50,[50],1640 nM
same,TGI,[50],3.41 µM
same,GI50,[51],1850 nM
same,TGI,[51],3.51 µM
same,GI50,[52],392 nM
same,TGI,[52],> 100 µM
same,GI50,[53],1250 nM
same,TGI,[53],2740 nM
same,GI50,[54],1810 nM
same,TGI,[54],3.6 µM
same,GI50,[55],2060 nM
same,TGI,[55],4.25 µM
same,GI50,[56],2130 nM
same,TGI,[56],6.27 µM
